Experimental data taken from patent US12285357B2, “Intraocular drug delivery systems and methods of use” (SpyGlass Pharma, Inc., priority 2022, dated 2025).

How the values were obtained:
[1] = daily release or elution of Bimatoprost in vitro versus time (FIG. 8); type: physicochemical; conditions: four-hundred-day study
From the text: FIG. 8 is an exemplary graph of daily release or elution of a pharmaceutical or therapeutic agent in vitro versus time. […] The target release rate in this study on rabbits was 0.050 to 0.100 micrograms per day.

[2] = Bimatoprost sampled in the aqueous humor of dogs over time (FIG. 9); type: in vivo
From the text: FIG. 9 is an exemplary graph of a therapeutic agent delivered to the aqueous humor of an eye of canines versus time.
In this example, there was a low dose group of dogs (Grp 1), a mid-dose group of dogs (Grp 2), a high dose group of dogs (Grp 3), and a placebo group of dogs (Grp 4).

CCNC(=O)CCC/C=C\C[C@@H]1[C@@H](/C=C/[C@@H](O)CCc2ccccc2)[C@H](O)C[C@@H]1O [Bimatoprost]
release rate order over time [1]: essentially a zero-order and/or a steady state elution rate | level of Bimatoprost in the aqueous humor, elution order ([2]; low dose (Grp 1), mid-dose (Grp 2), high dose (Grp 3), study period about one hundred thirteen days): zero-order elution rate | mean measurements of Bimatoprost in the aqueous humor versus dose ([2]; low, mid and high dose groups, sampled in ng/mL): increased with the higher doses
